This is an account of results in ChEMBL document CHEMBL1201862, “PubChem BioAssay data set” (2004).

Structures are written as SMILES. Activity calls are given as the source filed them.

A short description of assay [1]: HIV-1 Vif–A3G interaction blockers – biochemical, TR-FRET, GST-Vif 1-94, biotin-A3G peptide, dose response retest, primary screen (AID 1117319).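 Also: TR-FRET signal of purified GST-Vif binding a biotinylated A3G peptide; inhibitors lower the FRET signal by blocking Vif and A3G binding.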 Format: functional.
The target in the next assay is Genome polyprotein (Hepatitis C virus, UniProt Q2Q167). Description: disruption of hepatitis C core self-association – biochemical, TR-FRET, dose response (AID 2159).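 Also: blocks dimerization of HCV core protein measured by TR-FRET between tagged core106 pairs.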 On the set-up: species or system Hepacivirus hominis. (In TR-FRET formats the signal depends on donor and acceptor labels being close together.)
Assay [2] in a line: viability loss in THP-1 monocytes – THP-1 cells, cytotoxicity control for Vif-APOBEC3G degradation inhibitor project, dose response (AID 1117359). Format: functional. As to conditions: THP-1.
Assay [3] can be described thus: HGIII-sPLA2 enzyme inhibition potency – biochemical, QFRET, IC50, dose response (AID 743457).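 Also: green fluorescence rise as the enzyme cleaves BODIPY PC-A2 in liposomes.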
Assay [4] can be described thus: rise of 2N DNA cells, HeLa – IC50, dose response (AID 1117349). Format: functional, cell-based.
Assay [5] is described as follows: CellTiter-Glo luminescence survival assay, SW480 colon tumor line, concentration-response curve, half-maximal inhibitory concentration (AID 1117338). Format: functional.
Assay [6] is described as follows: RKO cell viability reduction, dose response, CellTiter-Glo luminescence (AID 1117322). It is filed as functional. In general terms: ATP-based viability assays read luminescence as a measure of living cells.
A short description of assay [7]: cytotoxicity toward HCT116 cells – cell-based, CellTiter-Glo luminescence, IC50, dose response (AID 1117332). It is filed as functional. As to conditions: HCT-116.
Assay [8] is described as follows: SNU-C1 cell viability reduction, dose response, CellTiter-Glo luminescence (AID 1117323). Format: functional, cell-based.
Assay [9] in a line: cytotoxicity toward Colo320 cells – cell-based, CellTiter-Glo luminescence, IC50, dose response (AID 1117334). It is filed as functional. Particulars: COLO 320.
Assay [10] is described as follows: rise of 4N DNA cells, HeLa – IC50, dose response (AID 1117351). It is filed as functional, cell-based.
Assay [11] is described as follows: cytotoxicity toward HT-29 cells – cell-based, CellTiter-Glo luminescence, IC50, dose response (AID 1117330). It is filed as functional.
The nature of assay [12]: Reduced DLD-1 viability, concentration-response, CellTiter-Glo luminescence (AID 1117352). Format: functional.

Sequence of Genome polyprotein (Q2Q167 whole entry): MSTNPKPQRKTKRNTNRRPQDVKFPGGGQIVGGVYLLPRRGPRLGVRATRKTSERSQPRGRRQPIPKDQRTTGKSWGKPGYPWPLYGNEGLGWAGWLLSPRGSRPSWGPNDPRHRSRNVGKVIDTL

A word on the IC50: it is the concentration that gives 50% inhibition. As to `Cc1ccc(CCNC(=O)C2CCCN(S(=O)(=O)c3c(C)noc3/C=C/N(C)C)C2)cc1` (centres undefined), the IC50 in assay [1] is > 100 µM (active).

Regarding `CCCCn1c(SCC(=O)Nc2cc(C)on2)nc2ccccc2c1=O`, the IC50 at Genome polyprotein was > 49.8 µM (not active).

For `N#Cc1ccccc1NC(=O)CNc1ccc(Cl)c(C(F)(F)F)c1`, in assay [1], the IC50 is > 100 µM (active).

For orientation: CC50 means the concentration that lowers cell viability or growth by half. On to `CCOC(=O)C1CCN(C(=O)c2ccc3snnc3c2)CC1`, for which, in assay [2], the CC50 is > 40 µM (active).

On to `Cc1ccc2c(c1)c1c3n2CCNC3CCC1` (centres undefined), for which the IC50 in assay [3] was > 122 µM (inactive); in assay [4], > 10 µM (inactive); in assay [5], > 20 µM (inactive); in [6], > 20 µM (inactive); in assay [7], > 20 µM (inactive); in assay [8] it was 2.48 µM (active). Besides, the IC50 in assay [9] is > 20 µM (inactive); in [10] it was > 10 µM (inactive); in assay [11] it was > 20 µM (inactive); in [12], > 20 µM (inactive).
